Measurements taken from patent US11339502B2, “Combinatorial derivatives of oligopeptides having antiviral properties” (priority 2017, dated 2022).

What was measured:
Assay type in all cases: cell-based
[1] = tested on: herpes simplex virus type 1 (strain L-2)
[2] = tested on: vesicular stomatitis virus (reference strain)
H1N1 influenza virus = tested on: H1N1 influenza virus

KKRKRKRKR [derivative 54]
0%: % cytoprotective antiviral activity, Herp [1] | % cytoprotective antiviral activity, Vesic [2] | % cytoprotective antiviral activity, Inf (H1N1 influenza virus)
